Laboratory results from US20250222117A1, “COMPOUND COMPRISING RALTITREXED OR 5-MTHF LINKED TO A THERAPEUTIC AGENT, COMPOSITION, AND METHOD OF USE” (PURDUE RESEARCH FOUNDATION, priority 2022, published 2025).

Tested on: murine CD45+CD4+CD25+ Tregs
Experiment: Treg suppression assay: pre-treated Tregs co-cultured with CFSE-labeled effector T cells, flow cytometry
Type: cell-based, mouse
Conditions: Tregs pre-treated 10 nM for 3 hours, 1:4 ratio, 4 days
Protocol: Murine CD45+CD4+CD25+ Tregs and CD45+CD4+CD25− effector T cells were isolated from healthy mice using a StemCell mouse Treg Isolation Kit (StemCell Technologies, Cambridge, MA). The cells were used in two different assays.
First, Tregs that were either pre-treated with 10 nM TLR7-1A agonist for 3 hours or left untreated were co-cultured with CFSE-labeled effector T cells at 1:4 ratio, with or without CD3/CD28 activation beads. Incubation proceeded for 4 days before flow cytometry analysis.

CCCCc1nc2c(N)nc3ccccc3c2n1CC(C)(C)CO [TLR7-1A agonist, 3-(4-amino-2-butyl-1H-imidazo[4,5-c]quinolin-1-yl)-2,2-dimethylpropan-1-ol]
effect on Treg suppression of CD4+ T cell proliferation: reversed the suppressive activity
